According to PubChem BioAssay (NCI):
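Method: 48-hour compound exposure of cells in 96-well plates, five concentrations, linear interpolation of endpoints. TGI: concentration producing complete growth inhibition.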

Key:
Assay in all cases: DTP human tumour cell line panel, 48 h
SK-OV-3 ovarian = system: SK-OV-3 ovarian
SF-539 CNS = system: SF-539 CNS
T-47D breast = system: T-47D breast
HCT-116 colon = system: HCT-116 colon
HCC-2998 colon = system: HCC-2998 colon
HS 578T breast = system: HS 578T breast
KM12 colon = system: KM12 colon
M14 melanoma = system: M14 melanoma
786-0 renal = system: 786-0 renal
SF-295 CNS = system: SF-295 CNS
UACC-257 melanoma = system: UACC-257 melanoma
SN12C renal = system: SN12C renal
BT-549 breast = system: BT-549 breast
SNB-75 CNS = system: SNB-75 CNS
SW-620 colon = system: SW-620 colon
TK-10 renal = system: TK-10 renal
OVCAR-4 ovarian = system: OVCAR-4 ovarian
EKVX NSCLC = system: EKVX NSCLC
COLO 205 colon = system: COLO 205 colon
NCI-H522 lung = system: NCI-H522 lung
SK-MEL-28 melanoma = system: SK-MEL-28 melanoma
MDA-N = system: MDA-N
MALME-3M melanoma = system: MALME-3M melanoma
ACHN renal = system: ACHN renal
MOLT-4 leukemia = system: MOLT-4 leukemia
RXF 393 renal = system: RXF 393 renal
UACC-62 melanoma = system: UACC-62 melanoma
HT29 colon = system: HT29 colon
MDA-MB-435 = system: MDA-MB-435
HOP-62 NSCLC = system: HOP-62 NSCLC
OVCAR-3 ovarian = system: OVCAR-3 ovarian
MCF7 breast = system: MCF7 breast
SNB-19 CNS = system: SNB-19 CNS
HCT-15 colon = system: HCT-15 colon
DU-145 prostate = system: DU-145 prostate
UO-31 renal = system: UO-31 renal
OVCAR-8 ovarian = system: OVCAR-8 ovarian
U251 CNS = system: U251 CNS
RPMI-8226 leukemia = system: RPMI-8226 leukemia
NCI-H226 lung = system: NCI-H226 lung
IGROV1 ovarian = system: IGROV1 ovarian
SK-MEL-2 melanoma = system: SK-MEL-2 melanoma
SK-MEL-5 melanoma = system: SK-MEL-5 melanoma
SR leukemia = system: SR leukemia
A498 renal = system: A498 renal
CAKI-1 renal = system: CAKI-1 renal
CCRF-CEM leukemia = system: CCRF-CEM leukemia
PC-3 prostate = system: PC-3 prostate
OVCAR-5 ovarian = system: OVCAR-5 ovarian
MDA-MB-231 breast = system: MDA-MB-231 breast
LOX IMVI melanoma = system: LOX IMVI melanoma
HL-60(TB) leukemia = system: HL-60(TB) leukemia
NCI/ADR-RES ovarian = system: NCI/ADR-RES ovarian
NCI-H460 lung = system: NCI-H460 lung
NCI-H23 lung = system: NCI-H23 lung
HOP-92 NSCLC = system: HOP-92 NSCLC
SF-268 CNS = system: SF-268 CNS
A549 NSCLC = system: A549 NSCLC
K-562 leukemia = system: K-562 leukemia

CCCCCCCCCCCOCCC1C(C(C)OCCN2CCCC2)OC2OC(C)(C)OC21 (stereo unspecified)
TGI (SK-OV-3 ovarian): 8.96 µM | TGI (SF-539 CNS): 3.68 µM | TGI (T-47D breast): 4.8 µM | TGI (HCT-116 colon): 3.38 µM | TGI (HCC-2998 colon): 4.83 µM | TGI (HS 578T breast): 6.93 µM | TGI (KM12 colon): 1.78 µM | TGI (M14 melanoma): 1.01 µM | TGI (786-0 renal): 5.88 µM | TGI (SF-295 CNS): 5.71 µM | TGI (UACC-257 melanoma): 3.78 µM | TGI (SN12C renal): 7.31 µM | TGI (BT-549 breast): 7.76 µM | TGI (SNB-75 CNS): 7.07 µM | TGI (SW-620 colon): 3.55 µM | TGI (TK-10 renal): 6.6 µM | TGI (OVCAR-4 ovarian): 22.3 µM | TGI (EKVX NSCLC): 10.8 µM | TGI (COLO 205 colon): 3.88 µM | TGI (NCI-H522 lung): 1.05 µM | TGI (SK-MEL-28 melanoma): 3.08 µM | TGI (MDA-N): 3.52 µM | TGI (MALME-3M melanoma): 3.08 µM | TGI (ACHN renal): 10.8 µM | TGI (MOLT-4 leukemia): 5.93 µM | TGI (RXF 393 renal): 7.3 µM | TGI (UACC-62 melanoma): 3.28 µM | TGI (HT29 colon): 3.5 µM | TGI (MDA-MB-435): 3.51 µM | TGI (HOP-62 NSCLC): 4.38 µM | TGI (OVCAR-3 ovarian): 12.3 µM | TGI (MCF7 breast): 6.58 µM | TGI (SNB-19 CNS): 13.7 µM | TGI (HCT-15 colon): 4.35 µM | TGI (DU-145 prostate): 11.3 µM | TGI (UO-31 renal): 6.51 µM | TGI (OVCAR-8 ovarian): 11.3 µM | TGI (U251 CNS): 5.72 µM | TGI (RPMI-8226 leukemia): 3.17 µM | TGI (NCI-H226 lung): 24.5 µM | TGI (IGROV1 ovarian): 6.59 µM | TGI (SK-MEL-2 melanoma): 3.51 µM | TGI (SK-MEL-5 melanoma): 3.22 µM | TGI (SR leukemia): 1.83 µM | TGI (A498 renal): 28.5 µM | TGI (CAKI-1 renal): 6.52 µM | TGI (CCRF-CEM leukemia): > 23.9 µM | TGI (PC-3 prostate): 6.05 µM | TGI (OVCAR-5 ovarian): 8.94 µM | TGI (MDA-MB-231 breast): 3.97 µM | TGI (LOX IMVI melanoma): 2.93 µM | TGI (HL-60(TB) leukemia): 3.36 µM | TGI (NCI/ADR-RES ovarian): 19.6 µM | TGI (NCI-H460 lung): 5.05 µM | TGI (NCI-H23 lung): 11 µM | TGI (HOP-92 NSCLC): 4.75 µM | TGI (SF-268 CNS): 16 µM | TGI (A549 NSCLC): 11.5 µM

C=C1C(=O)O[C@H]2[C@@H](O)[C@H](C)CCC/C(C)=C/CC[C@@]3(C)O[C@@H]3C[C@@H]12
TGI (SK-OV-3 ovarian): 34.2 µM | TGI (SF-539 CNS): 11.8 µM | TGI (T-47D breast): 12.3 µM | TGI (HCT-116 colon): 12.4 µM | TGI (HCC-2998 colon): 26 µM | TGI (HS 578T breast): > 100 µM | TGI (KM12 colon): 33.1 µM | TGI (M14 melanoma): 18.4 µM | TGI (786-0 renal): 14.9 µM | TGI (SF-295 CNS): 34.9 µM | TGI (UACC-257 melanoma): 22.4 µM | TGI (SN12C renal): 22.6 µM | TGI (BT-549 breast): 14.5 µM | TGI (SNB-75 CNS): 29.6 µM | TGI (SW-620 colon): 39.9 µM | TGI (TK-10 renal): 3.95 µM | TGI (OVCAR-4 ovarian): 19.8 µM | TGI (EKVX NSCLC): 19 µM | TGI (COLO 205 colon): 12.3 µM | TGI (K-562 leukemia): > 100 µM | TGI (NCI-H522 lung): 8.28 µM | TGI (SK-MEL-28 melanoma): 33.5 µM | TGI (MDA-N): 25.6 µM | TGI (MALME-3M melanoma): 30.6 µM | TGI (ACHN renal): 6.16 µM | TGI (RXF 393 renal): 16.4 µM | TGI (UACC-62 melanoma): 22.6 µM | TGI (HT29 colon): 28.7 µM | TGI (MDA-MB-435): 29.5 µM | TGI (HOP-62 NSCLC): 56.3 µM | TGI (OVCAR-3 ovarian): 31.1 µM | TGI (MCF7 breast): 36.4 µM | TGI (SNB-19 CNS): 37.5 µM | TGI (HCT-15 colon): 4.68 µM | TGI (DU-145 prostate): 19.1 µM | TGI (UO-31 renal): 18.2 µM | TGI (OVCAR-8 ovarian): > 51.2 µM | TGI (U251 CNS): 26.9 µM | TGI (RPMI-8226 leukemia): 25.7 µM | TGI (NCI-H226 lung): 3.34 µM | TGI (IGROV1 ovarian): 15.6 µM | TGI (SK-MEL-2 melanoma): 48.9 µM | TGI (SK-MEL-5 melanoma): 28.1 µM | TGI (SR leukemia): 14.7 µM | TGI (A498 renal): 25.3 µM | TGI (CAKI-1 renal): 6.9 µM | TGI (CCRF-CEM leukemia): 11.7 µM | TGI (PC-3 prostate): > 57.6 µM | TGI (OVCAR-5 ovarian): 34.8 µM | TGI (MDA-MB-231 breast): 31.7 µM | TGI (LOX IMVI melanoma): 19.3 µM | TGI (HL-60(TB) leukemia): > 27.4 µM | TGI (NCI/ADR-RES ovarian): 37.9 µM | TGI (NCI-H460 lung): 16.8 µM | TGI (NCI-H23 lung): 21.8 µM | TGI (HOP-92 NSCLC): 8.04 µM | TGI (SF-268 CNS): 22 µM | TGI (A549 NSCLC): > 60.9 µM
